Measurements published in patent publication US6914045B2, “Glycopeptide antibiotics” (Wyeth Holdings Corporation, priority 2001, dated 2005).
Converted amounts (≈) assume the structure as drawn.

Legend:
Assay in all cases: in vitro antibacterial evaluation, MIC by broth dilution
Assay type in all cases: cell-based
Enterococcus sp. = settings: broth dilution, 18 hours at 35° C.
Method: (§1) Methods for in vitro Antibacterial Evaluation (Table 1)
(§2) The minimum inhibitory concentration (MIC), the lowest concentration of the antibiotic which inhibits growth of the test organism, is determined by the broth dilution method using Muller-Hinton II […] (Baltimore Biological Laboratories) following the recommendations of the National Committee for Clinical Laboratory Standards [Methods for dilution antimicrobial susceptibility tests for bacteria that grow aerobically, approved standard M7-A2, National Committee for Clinical Laboratory Standards, Villanova, Pa.].
(§3) An inoculum level of 5×10^5 CFU/mL, and a range of antibiotic concentrations (64-0.06 μg/mL) is used. […] The test organisms include a spectrum of Gram-positive bacteria comprised of Staphylococcus sp., Streptococcus sp. and Enterococcus sp. These organisms include recent clinical isolates that are resistant to methicillin, penicillin and/or vancomycin.

Staphylococcus sp. = settings: broth dilution, 18 hours at 35° C.
Method: as §1, §2, §3

Streptococcus sp. = settings: broth dilution, 18 hours at 35° C.
Method: as §1, §2, §3

Escherichia coli = settings: 18 hours at 35° C.
Method in brief: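 Broth dilution in Muller-Hinton II medium per NCCLS standard M7-A2, with an inoculum of 5×10^5 CFU/mL and antibiotic tested over 64-0.06 μg/mL. MIC was taken as the lowest concentration inhibiting visible growth.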

Structure (SMILES): CC(C1CCCCC1)C1NC(=O)CNC(=O)C(CO)NC(=O)C(C(O)C2CNC(=N)N2C2OC(CO)C(O)C(O)C2O)NC(=O)C(C(O)C2CNC(=N)N2)NC(=O)C(C[C@H]2CC[C@H](O)CC2)NC1=O (stereo partly drawn) [Example 54a, Cyclo[3-(anti-4-hydroxycyclohexyl)alanyl-3-(2-iminoimidazolidin-4-yl)seoyl-3-(3-hexopyranosyl-2-iminoimidazolidin-4-yl)serylserylglycyl-3-cyclohexyl-2-aminobutanoyl]]
- MIC Enterococcus avium (GC 4558) (Enterococcus sp.; Enterococcus avium (GC 4558)): 128 µg/mL (≈ 130 µM)
- MIC Enterococcus faecalis (ATCC 29212) (Enterococcus sp.; Enterococcus faecalis (ATCC 29212)): >128 µg/mL
- MIC Enterococcus faecalis (GC 4552) (Enterococcus sp.; Enterococcus faecalis (GC 4552)): >128 µg/mL
- MIC Enterococcus faecalis (GC 4553) (Enterococcus sp.; Enterococcus faecalis (GC 4553)): >128 µg/mL
- MIC Enterococcus faecalis (GC 4554) (Enterococcus sp.; Enterococcus faecalis (GC 4554)): >128 µg/mL
- MIC Enterococcus faecalis (GC 6189) (Enterococcus sp.; Enterococcus faecalis (GC 6189)): >128 µg/mL
- MIC Enterococcus faecium (GC 2243) (Enterococcus sp.; Enterococcus faecium (GC 2243)): >128 µg/mL
- MIC Enterococcus faecium (GC 4556) (Enterococcus sp.; Enterococcus faecium (GC 4556)): >128 µg/mL
- MIC Enterococcus faecium (GC 4557) (Enterococcus sp.; Enterococcus faecium (GC 4557)): 128 µg/mL (≈ 130 µM)
- MIC Enterococcus avium (GC 4558) (Enterococcus sp.): 128 µg/mL (≈ 130 µM)
- MIC Enterococcus faecalis (ATCC 29212) (Enterococcus sp.): >128 µg/mL
- MIC Enterococcus faecalis (GC 2242) (Enterococcus sp.): >128 µg/mL
- MIC Enterococcus faecalis (GC 2691) (Enterococcus sp.): >128 µg/mL
- MIC Enterococcus faecalis (GC 3059) (Enterococcus sp.): >128 µg/mL
- MIC Enterococcus faecalis (GC 4552) (Enterococcus sp.): >128 µg/mL
- MIC Enterococcus faecalis (GC 4553) (Enterococcus sp.): >128 µg/mL
- MIC Enterococcus faecalis (GC 4554) (Enterococcus sp.): >128 µg/mL
- MIC Enterococcus faecalis (GC 6189) (Enterococcus sp.): >128 µg/mL
- MIC Enterococcus faecium (GC 2243) (Enterococcus sp.): >128 µg/mL
- MIC Enterococcus faecium (GC 4556) (Enterococcus sp.): >128 µg/mL
- MIC Enterococcus faecium (GC 4557) (Enterococcus sp.): 128 µg/mL (≈ 130 µM)
- MIC Enterococcus faecalis (GC 2242) (Enterococcus sp.; strain GC 2242): >128 µg/mL
- MIC Enterococcus faecalis (GC 2691) (Enterococcus sp.; strain GC 2691): >128 µg/mL
- MIC Enterococcus faecalis (GC 3059) (Enterococcus sp.; strain GC 3059): >128 µg/mL
- MIC Staphylococcus aureus (ATCC 29213) (Staphylococcus sp.; strain ATCC 29213): >128 µg/mL
- MIC Staphylococcus aureus (GC 1131) (Staphylococcus sp.; strain GC 1131): >128 µg/mL
- MIC Staphylococcus aureus (GC 3051) (Staphylococcus sp.; strain GC 3051): >128 µg/mL
- MIC Staphylococcus aureus (GC 3053) (Staphylococcus sp.; strain GC 3053): >128 µg/mL
- MIC Staphylococcus aureus (GC 4541) (Staphylococcus sp.; strain GC 4541): >128 µg/mL
- MIC Staphylococcus aureus (GC 4542) (Staphylococcus sp.; strain GC 4542): >128 µg/mL
- MIC Staphylococcus aureus-SMITH (GC 4543) (Staphylococcus sp.; strain GC 4543): >128 µg/mL
- MIC Staphylococcus aureus (GC 4544) (Staphylococcus sp.; strain GC 4544): >128 µg/mL
- MIC Staphylococcus aureus (GC 4545) (Staphylococcus sp.; strain GC 4545): >128 µg/mL
- MIC Staphylococcus haemolyticus (GC 4546) (Staphylococcus sp.; strain GC 4546): 128 µg/mL (≈ 130 µM)
- MIC Coagulase Negative Staphylococcus (GC 4547) (Staphylococcus sp.; strain GC 4547): 128 µg/mL (≈ 130 µM)
- MIC Coagulase Negative Staphylococcus (GC 4548) (Staphylococcus sp.; strain GC 4548): >128 µg/mL
- MIC Coagulase Negative Staphylococcus (GC 4549) (Staphylococcus sp.; strain GC 4549): >128 µg/mL
- MIC Coagulase Negative Staphylococcus (GC 4551) (Staphylococcus sp.; strain GC 4551): >128 µg/mL
- MIC Streptococcus agalactiae (GC 4564) (Streptococcus sp.): >128 µg/mL
- MIC Streptococcus pneumoniae (ATCC 6301) (Streptococcus sp.): >128 µg/mL
- MIC Streptococcus pneumoniae (GC 1894) (Streptococcus sp.): 128 µg/mL (≈ 130 µM)
- MIC Streptococcus pneumoniae (GC 4565) (Streptococcus sp.): >128 µg/mL
- MIC Streptococcus pyogenes (GC 4563) (Streptococcus sp.): >128 µg/mL
- MIC Streptococcus pneumoniae (ATCC 6301) (Streptococcus sp.; strain ATCC 6301): >128 µg/mL
- MIC Streptococcus pneumoniae (GC 1894) (Streptococcus sp.; strain GC 1894): 128 µg/mL (≈ 130 µM)
- MIC Streptococcus pyogenes (GC 4563) (Streptococcus sp.; strain GC 4563): >128 µg/mL
- MIC Streptococcus agalactiae (GC 4564) (Streptococcus sp.; strain GC 4564): >128 µg/mL
- MIC Streptococcus pneumoniae (GC 4565) (Streptococcus sp.; strain GC 4565): >128 µg/mL
- MIC Escherichia coli (ATCC 25922) (Escherichia coli): >128 µg/mL
- MIC Escherichia coli (GC 4559) (Escherichia coli): >128 µg/mL
- MIC Escherichia coli (GC 4560) (Escherichia coli): >128 µg/mL
